This is an account of results in the supplement of paper PMC10011410.

± gives the standard deviation of the averaged measurements.

One test concerns U-2 OS. Put plainly: relative cell count vs DMSO (cell painting) (fraction of DMSO control); higher = more cells remaining (less cytotoxic). The settings on record: 5 µM; 24 h. The method, boiled down: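 In this cell painting assay, roughly 1,500 U-2 OS cells per well in 384-well plates were pin-tool treated at 37 °C for 24 h, typically at six 2-fold steps from 20 μM down to 625 nM. Cells were stained with MitoTracker, concanavalin A, phalloidin, wheat germ agglutinin, Hoechst and SYTO 14, imaged on an Opera Phenix, and analysed in CellProfiler with normalization to same-plate DMSO cells. Reported values are means of four replicate plates, with the activity score defined as the Mahalanobis distance from DMSO wells and cell count defined relative to DMSO wells.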
Consider `c1ccc(Nc2nc(-c3ccccc3)ns2)cc1`, for which the relative cell count was found to be 0.925. The same measure, in the same setting: under `C=CC(=O)Nc1cccc(Oc2nc(Nc3ccc(N4CCN(C)CC4)cc3OC)ncc2Cl)c1` stands 0.957. Molecule `Cn1nnnc1SC1=CS(=O)(=O)c2ccccc21` showed a relative cell count of 0.392. Consider `CCC(=O)N1CCN(c2ccc(-n3c(=O)ccc4cnc5ccc(-c6cnc7ccccc7c6)cc5c43)cc2C(F)(F)F)CC1`, for which the relative cell count stood at 0.714. Same read-out and setting: the figure for `O=C1CC(Nc2ccccc2)C(=O)N1Cc1ccccc1` (stereo not drawn) is 0.984; for `C[C@@H]1C[C@H]2O[C@@H]2/C=C\C=C\C(=O)Cc2c(Cl)c(O)cc(O)c2C(=O)O1` it is 0.466 ± 0.042; for `C=CC(=O)Nc1cc2c(Nc3ccc(F)c(Cl)c3)ncnc2cc1OCCCN1CCOCC1` it is 0.0662.

As for `O=C1/C(=C/c2ccc(O)c(Br)c2)CCC/C1=C\c1ccc(O)c(Br)c1`, the relative cell count was found to be 0.904. In the case of `CNC(=O)Nc1ccc2c(c1)CC[C@@]21OC(=O)N(CC(=O)N(Cc2ccc(F)cc2)[C@@H](C)C(F)(F)F)C1=O`, the relative cell count worked out at 1.02. `O=C(O[C@@H]1Cc2c(O)cc(O)cc2O[C@@H]1c1cc(O)c(O)c(O)c1)c1cc(O)c(O)c(O)c1` registered a relative cell count of 0.96. `O=S1(=O)C=C(Sc2nn(-c3ccccc3)c(=S)s2)c2ccccc21` gave a relative cell count of 0.223. As to `C=CC(=O)Nc1ccc(CN2C(=O)N(c3cc(OC)cc(OC)c3)Cc3cnc(Nc4ccc(N5CCN(C)CC5)cc4)nc32)cc1`, the relative cell count was found to be 0.951. Still for that read-out and setting: the figure for `CCCCCCCCCCCCCCCc1cccc(O)c1C(=O)O` is 1.05; for `Cl.Cl.O=C(O)Cn1nnc(-c2ccc(CN(CCCCOc3ccc(CN4CCCC4)cc3)CCc3ccccc3)cc2)n1` it is 1.13; for `COc1cc2ncnc(Nc3ccc(F)c(Cl)c3)c2cc1NC(=O)/C=C/CN1CCCCC1` it is 0.503. The same measure, in the same setting: the figure for `Cc1cc(-c2ccccc2)cc(C(=O)NNS(=O)(=O)c2ccccc2)c1F` is 0.965. `Cn1c(=O)n(-c2ccc(C(C)(C)C#N)cc2)c2c3cc(-c4cnc5ccccc5c4)ccc3ncc21` gave a relative cell count of 0.83. `CCCCCC[C@H]1C(=O)O[C@H](C)[C@H](NC(=O)c2cccc(NC=O)c2O)C(=O)O[C@@H](C)[C@@H]1OC(=O)CC(C)C` came in with a relative cell count of 0.8. For `COC(=O)[C@]1(C)CC[C@]2(C)CC[C@]3(C)C4=CC=C5C(=CC(=O)C(O)=C5C)[C@]4(C)CC[C@@]3(C)[C@@H]2C1`, the relative cell count stood at 0.0644.

The same test, now with this note: 10 µM; 24 h.
`O=C(Nc1nc(-c2ccccc2)ns1)c1cccs1` gave a relative cell count of 0.917. For the molecule `Cc1cc2c(C(C)C)c(O)c(O)c(C=O)c2c(O)c1-c1c(C)cc2c(C(C)C)c(O)c(O)c(C=O)c2c1O`, the relative cell count was found to be 0.937.

Molecule `C=CC(=O)Nc1cc(Nc2nccc(-c3cn(C)c4ccccc34)n2)c(OC)cc1N(C)CCN(C)C` returned a relative cell count of 0.773. Still for that read-out and setting: the figure for `O=S1(=O)C=Cc2ccccc21` is 0.975; for `CC(=O)c1c(O)c(C)c(O)c(Cc2c(O)c3c(c(C(=O)C=Cc4ccccc4)c2O)OC(C)(C)C=C3)c1O` it is 1.11; for `CC1(C)CC[C@]2(C(=O)n3ccnc3)CC[C@]3(C)[C@H](C(=O)C=C4[C@@]5(C)C=C(C#N)C(=O)C(C)(C)[C@@H]5CC[C@]43C)[C@@H]2C1` it is 0.0552. Molecule `COC[C@H]1OC(=O)c2coc3c2[C@@]1(C)C1=C(C3=O)[C@@H]2CCC(=O)[C@@]2(C)C[C@H]1OC(C)=O` had a relative cell count of 0.837 ± 0.065. The same measure, in the same setting: under `c1ccc(Nc2nc(-c3ccccc3)ns2)cc1` stands 0.958; under `C=CC(=O)Nc1cccc(Oc2nc(Nc3ccc(N4CCN(C)CC4)cc3OC)ncc2Cl)c1`, 0.914. As to `Cn1nnnc1SC1=CS(=O)(=O)c2ccccc21`, the relative cell count stood at 0.322. On the same count and under the same terms, the figure for `CCC(=O)N1CCN(c2ccc(-n3c(=O)ccc4cnc5ccc(-c6cnc7ccccc7c6)cc5c43)cc2C(F)(F)F)CC1` is 0.683; for `O=C1CC(Nc2ccccc2)C(=O)N1Cc1ccccc1` (stereo not drawn) it is 0.96. As to `C[C@@H]1C[C@H]2O[C@@H]2/C=C\C=C\C(=O)Cc2c(Cl)c(O)cc(O)c2C(=O)O1`, the relative cell count stood at 0.419 ± 0.033. Same read-out and setting: the figure for `C=CC(=O)Nc1cc2c(Nc3ccc(F)c(Cl)c3)ncnc2cc1OCCCN1CCOCC1` is 0.0483; for `O=C1/C(=C/c2ccc(O)c(Br)c2)CCC/C1=C\c1ccc(O)c(Br)c1` it is 0.96. The molecule `CNC(=O)Nc1ccc2c(c1)CC[C@@]21OC(=O)N(CC(=O)N(Cc2ccc(F)cc2)[C@@H](C)C(F)(F)F)C1=O` showed a relative cell count of 1.05. For `O=C(O[C@@H]1Cc2c(O)cc(O)cc2O[C@@H]1c1cc(O)c(O)c(O)c1)c1cc(O)c(O)c(O)c1`, the relative cell count worked out at 0.989. As for `O=S1(=O)C=C(Sc2nn(-c3ccccc3)c(=S)s2)c2ccccc21`, the relative cell count was found to be 0.247. As for `C=CC(=O)Nc1ccc(CN2C(=O)N(c3cc(OC)cc(OC)c3)Cc3cnc(Nc4ccc(N5CCN(C)CC5)cc4)nc32)cc1`, the relative cell count was 0.83. The molecule `CCCCCCCCCCCCCCCc1cccc(O)c1C(=O)O` registered a relative cell count of 1.01. Same read-out and setting: under `Cl.Cl.O=C(O)Cn1nnc(-c2ccc(CN(CCCCOc3ccc(CN4CCCC4)cc3)CCc3ccccc3)cc2)n1` stands 1.14; under `COc1cc2ncnc(Nc3ccc(F)c(Cl)c3)c2cc1NC(=O)/C=C/CN1CCCCC1`, 0.331; under `Cc1cc(-c2ccccc2)cc(C(=O)NNS(=O)(=O)c2ccccc2)c1F`, 0.952.

In turn, `Cn1c(=O)n(-c2ccc(C(C)(C)C#N)cc2)c2c3cc(-c4cnc5ccccc5c4)ccc3ncc21` gave a relative cell count of 0.788.
